According to PMC5620575 (Pharmaceutics, 2017):
In brackets after ≈: the same amount, converted by molar mass.

Key:
[1] = humans; cited from earlier work
[2] = pharmacokinetics after single IV administration; format: in vivo; conditions: rabbit, 5 mg/kg
Description: IV administration of the compounds under investigation, and collection of blood samples were through a catheter inserted in the marginal ear vein of the rabbit (I-Cath, CharterMed Inc., Winston-Salem, NC, USA). After IV drug administration, blood was withdrawn to fill the cannula and then reinjected three times before obtaining any blood samples to prevent contamination. Furthermore, the cannula was flushed with heparinized saline to prevent blockage of the cannula and prevent sample to sample contamination.
Urine samples were collected utilizing Foly Catheter (size French 8). The catheter was inserted into the rabbit bladder using a lubricant. When urine is collected over a specific time interval, the bladder was irrigated with 3 × 15 mL normal saline at 3 min, 6 min, and 10 min before the end of the urine collection interval [15, 16]. Irrigation of the bladder is necessary to obtain the majority of the drug eliminated in urine during the collection interval.
Three groups of rabbits (n = 4, each) received 5 mg/kg dose of each compound via the IV catheter. This dose was selected based on the results of a preliminary experiment to achieve measurable plasma concentrations for 8 h using our analytical methods, to ensure good characterization of the plasma concentration-time profile. Accurately weighed Lzd and PH027 powder were dissolved first in 600 μL of ethanol using an ultrasound water bath. The resulting solution was then diluted with normal saline to produce the solutions used for IV administration, which consist of the dose of the compound dissolved in 3 mL of 20% ethanol in normal saline. PH051 required the use of slightly larger volume of ethanol to achieve complete dissolution. So, 900 μL of ethanol were used, and the resulting solution used for IV administration consisted of PH051 dose dissolved in 3 mL of 30% ethanol in normal saline. The difference in the volume of ethanol administered, 300 μL, which was necessary to ensure complete dissolution of PH051, should not have a significant effect on the pharmacokinetic behavior of PH051. The solutions were administered slowly over a period of […] administration, serial blood and urine samples were obtained over a period of 8 h. Plasma was obtained from blood by centrifugation, and samples were kept at −80 °C until analysis. The volumes of urine samples were determined and recorded, and aliquots were kept at −80 °C until analysis.
(§1) The pharmacokinetic parameters for each of the three compounds including half-life (t1/2), volume of distribution (Vd), elimination rate constant (k), area under the plasma concentration-time curve (AUC), total body clearance (CLT), renal clearance (CLR), and oral bioavailability (F) were determined using the general pharmacokinetic parameter calculation procedures using PKPD tools for Microsoft Excel. The obtained pharmacokinetic parameters for each compound were compared using Statistical Package of Social Sciences (SPSS) to determine the difference in the pharmacokinetic behavior for the three compounds.

[3] = pharmacokinetics after single oral administration as microemulsion; format: in vivo; conditions: New Zealand White, plasma, rabbit, 20 mg/kg, n = 3
Procedure: Three groups of rabbits (n = 3, each) received 20 mg/kg oral dose of each compound in the form of microemulsion through a pediatric feeding tube. After administration, serial blood samples were obtained through the IV catheter, over a period of 10 h. Plasma was obtained from blood by centrifugation, and samples were kept at −80 °C until analysis.
as §1

[4] = set-up: method as in unpublished data from our laboratory; conditions: rabbit urine after IV administration; ref unpublished data from our laboratory; cited from earlier work
S. aureus Giorgio = system: S. aureus Giorgio; set-up: method as in ref unpublished data from Jin-Hwan Kwak at Handong Global University; conditions: oral suspension 1 and 4 h after infection, survival recorded for 72 h; ref unpublished data from Jin-Hwan Kwak at Handong Global University; cited from earlier work
[5] = set-up: method as in ref 25 = [25]; 25. ZYVOXAM ® Product Monograph Pfizer Canada Inc. Kirkland, QC, Canada 2015; conditions: humans; cited from earlier work
Escherichia coli = system: Escherichia coli; set-up: method as in PMID 12467705, PMID 15911326, PMID 17140706, PMID 19376613, PMID 23811087; conditions: cited from earlier work
Moraxella catarrhalis = system: Moraxella catarrhalis; set-up: method as in PMID 12467705, PMID 15911326, PMID 17140706, PMID 19376613, PMID 23811087; conditions: cited from earlier work
[6] = pharmacokinetics after single oral administration as suspension; format: in vivo; conditions: New Zealand White, plasma, rabbit, 20 mg/kg, n = 4
Procedure: The pediatric feeding tube was pushed until it reached the stomach.
Three groups of rabbits (n = 4, each) received 20 mg/kg oral dose of each compound. […] Accurately weighted amounts of each compound were dissolved/suspended in 20 mL of warm normal saline using an ultrasound water bath. […] The solutions/suspensions of the three compounds were administered orally to the rabbits using a pediatric feeding tubes. After oral administration of each compound, serial blood samples were obtained through the IV catheter, over a period of 10 h after administration. Plasma was obtained from blood by centrifugation, and samples were kept at −80 °C until analysis.
as §1

[7] = system: Staphylococcus aureus and Enterococci spp; set-up: method as in PMID 12467705, PMID 15911326, PMID 17140706, PMID 19376613, PMID 23811087; conditions: clinical isolates; cited from earlier work
[8] = tissue to plasma distribution; format: in vivo; conditions: New Zealand White, rabbit, in vivo, 2 x 10 mg/kg IV, 2 h after second dose, n = 3, read-out: Tissue to Plasma Concentration Ratio, Kidney
Procedure: Three groups of White New Zealand rabbits (n = 3, each) weighing 3.0–3.5 kg were used. Each group received 10 mg/kg of one compounds administered intravenously over a period of 3–5 min, followed one hour later by a second IV dose of 10 mg/kg. Two h later, the rabbits were euthanized with an IV dose of pentobarbital. Plasma and tissue samples, including kidney, liver, lungs, spleen, heart, muscles, and vetrus fluid were collected immediately, and stored at −80 °C until analysis.
Plasma ultra-filtrate samples were analyzed using the same procedures for the plasma. Tissue homogenates were prepared by adding 1 gm of the tissues samples to 4 g of phosphate buffer, pH 7.4 (1:4, w/w), then homogenization using Tissue-Tearor, Bio-Spec Products Inc. (Bartlesville, OK, USA). Aliquots of 200 μL of tissue homogenate samples were analyzed using the procedures for the plasma and the concentrations were determined using plasma calibrators as described and validated previously for Lzd and PH027 [18].
The tissue to plasma concentration ratios for the three compounds were calculated from the ratio of the tissue homogenate concentrations corrected for the dilution during the homoginization process and the plasma concentrations. Generally, the three compounds have very good distribution to all tissues. The tissue to plasma distribution ratios for the novel compounds were more than one in kidney, lung, liver, heart, muscles and spleen, and the ratios were more than those for Lzd in all investigated tissues. Table 3, summerizes the tissue to plasma distribution ratios for the three compounds in different tissues.

[9] = weak base; reported, no reference given; cited from earlier work
Streptococcus pneumoniae = system: Streptococcus pneumoniae; set-up: method as in PMID 12467705, PMID 15911326, PMID 17140706, PMID 19376613, PMID 23811087; conditions: cited from earlier work
Heamophilus influenzae = system: Heamophilus influenzae; set-up: method as in PMID 12467705, PMID 15911326, PMID 17140706, PMID 19376613, PMID 23811087; conditions: unit printed only for the neighbouring MICs of the sentence; cited from earlier work
[10] = White New Zealand, plasma, n = 4

For `CC(=O)NC[C@H]1CN(c2ccc(N3CCOCC3)c(F)c2)C(=O)O1` [Linezolid, reference compound], the plasma protein binding [1] is listed as 30%, the AUC [2, 10] is listed as 4040 ± 1280 ng·h/mL and the half-life [2, 10] is listed as 52.4 ± 6.3 min. For the same molecule, the k el ([2]; White New Zealand, plasma, n = 4, read-out: Elimination rate constant (converted)) was 0.00022 s⁻¹, the CL renal ([2]; White New Zealand, urine and plasma, from renal excretion rate and plasma drug concentration, read-out: Renal clearance (converted)) was 1.38 mL/min/kg and the CLT ([2]; n = 4) was 20.7 ± 7.17 mL/min/kg. For the same molecule, the “Fraction excreted unchanged in urine” value ([2]; ratio of renal clearance to total body clearance) was 5.70%, the AUC [3] was 8350 ± 3340 ng·h/mL and the Cmax [3] was 3410 ± 1800 ng/mL. For the same molecule, the Tmax [3] was 45 min, the main metabolic route [4] was “metabolized mainly through oxidation” and the “in vivo activity against systemic mice infection” value (S. aureus Giorgio) was “better than the in vivo activity of the novel triazolyl-oxazolidinone derivatives”. The “dose excretion in urine” value [5] was 30%, the MIC (Escherichia coli) was greater than 64 µg/mL and the MIC (Moraxella catarrhalis) was 8.0 µg/mL (≈ 23.7 µM). The AUC [6] was 6250 ± 3620 ng·h/mL, the Cmax [6] was 3910 ± 1010 ng/mL and the Tmax [6] was 60 min. For the same molecule, the MIC [7] was 0.5 to 1.0 µg/mL, the Kp at 2 h [8] was 2.05 ± 0.067 and the pKa [9] was 1.4. The MIC (Streptococcus pneumoniae) was 0.5 µg/mL (≈ 1.48 µM) and the MIC (Heamophilus influenzae) was 8 µg/mL (≈ 23.7 µM).
